Entries after “also recorded” stand apart in the source; their conditions may differ.
How the values were obtained:
[1] = molecular target: T1, amyloglucosidase (Aspergillus niger, UniProt P69328); assay: Effect of noble gases on amyloglucosidase reaction; assay type: biochemical; conditions: amylyoglucoside (so in the source), generally observed
T1 construct: purchased Sigma Chemical A-7420
Source text: 1. Reaction Principle: [drawing 3] 2. Solution Preparation:

[2] = molecular target: T2, glucose isomerase (Streptomyces murinus, UniProt P37031); assay: Glucose isomerase column runs under gas saturation (Example 7); assay type: biochemical; conditions: for reaching point of equilibrium (fructose to glucose vs glucose to fructose conversion): 100 hr run, gas saturated columns, FIG. 13; for averages of fructose to glucose and glucose to fructose conversions: averages for each gas, FIG. 15; for conversion of glucose to fructose (activity+flow rate difference): lower flow rate, under Ne, Ar and N2, FIG. 11
T2 construct: purchased Novo Sweetzyme T
T2 sequence (P37031 whole entry): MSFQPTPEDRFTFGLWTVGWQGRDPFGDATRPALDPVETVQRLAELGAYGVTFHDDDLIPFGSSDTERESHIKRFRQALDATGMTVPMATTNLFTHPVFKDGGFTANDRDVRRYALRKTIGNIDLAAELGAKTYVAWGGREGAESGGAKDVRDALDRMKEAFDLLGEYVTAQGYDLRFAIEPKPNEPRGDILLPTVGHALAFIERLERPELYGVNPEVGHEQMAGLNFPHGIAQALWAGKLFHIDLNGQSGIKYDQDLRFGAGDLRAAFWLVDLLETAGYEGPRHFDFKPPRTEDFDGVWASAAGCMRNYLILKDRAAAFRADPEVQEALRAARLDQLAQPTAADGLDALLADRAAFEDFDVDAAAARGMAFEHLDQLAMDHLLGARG
Method: A comprehensive experiment was undertaken in order to relate the effects of noble gases upon the important process parameters of temperature, flow rate, enzyme activity and reaction equilibrium. In this experiment, four identical jacketed 1.6×35 cm (70 cc bed volume) columns containing 15 grams dry weight (40 cc bed volume) of the glucose isomerase packing used in the Vial. Runs were prepared according to the protocol outlined above. The columns and substrates were saturated with the gas of interest from a choice of argon, neon, nitrogen, krypton, xenon, helium, or a decile combination of any two or three of these.
One column was run at 0.2 ml/min at 50°, one at 0.2 ml/min at 60°, one at 0.5 ml/min at 50°, and one at 0.5 ml/min at 60°. […] During the first set of experiments, glucose feedstock (as prepared above) was used. During the second set, fructose feedstock of identical concentration was used to analyze the reverse reaction.
Data collected included flow rate, % glucose, % fructose, quantitative evaluation of fructose and glucose, dry solids, temperature, and residual gases.
Comparison of the data for each combination of experiments allows the determination of the effect of the gas, the temperature, the flow rate, the enzyme activity, and the reaction equilibrium. These are each determined independently, then the contribution of each parameter to the others can be calculated. For instance, elevating the temperature increases the flow rate, while lowering temperature and increasing the flow rate maximizes gas effects.

[3] = molecular target: T2, glucose isomerase; assay: Effect of gases on glucose isomerase reaction (vial runs, general statements); assay type: biochemical; conditions: for order of enhancing effect: glucose isomerase, generally observed
Method: Two sets of 125 ml serum vials are prepared for each studied gas, one containing the glucose substrate solution (80 ml per vial) and the other one containing Sweetzyme T (5 g dry/vial).
On day D, place the substrate vials into a shaking water bath (60° C., 140 rpm). Allow them to equilibrate in temperature. For each substrate vial, fill a 60 cc B-D syringe with the appropriate gas or gas mixture and inject it in the vial. Remove the substrate vial from the shaker bath and replace it with the corresponding enzyme vial. Allow the positive pressure in the substrate vial to fill the syringe with glucose solution up to 60 ml. Stopper syringe needle with a septum. Repeat this procedure for each vial. When all the substrate vials have been sampled, inject the content of each syringe (60 ml of gas-saturated glucose solution) into the corresponding enzyme vial. The enzyme vials are injected at 2 minute intervals. The time of the injection determine t0 for each vial.
The respective concentrations of glucose and fructose in the samples are determined by High Pressure Liquid Chromatography.

[4] = test system: α-amylase; assay: Effect of noble gases on α-amylase reaction; assay type: biochemical, Bacillus licheniformis; conditions: generally observed
Source text: PNPG7 is p-nitrophenyl-α-D-maltoheptaoside.
1. Reaction Principle: [drawing 3] 2.

[5] = Gas solubility; assay type: physicochemical
[6] = test system: amylase, amyloglucosidase and glucose isomerase; assay: Enzymatic reaction enhancement in the HFCS process (all three enzymes); assay type: biochemical
Source text: Generally, in accordance with the present invention, enzymatic reaction enhancements measured in terms of either rate of yield or stability parameters, and are relative to reactions conducted in air or with no added gases, or to reactions run with added nitrogen, or to a combination of the above. Depending upon the relative controls, enhancements of rate between about 0 and 20% and yield enhancements of about 0 to 5% for glucose isomerase have been obtained.

T1 sequence (P69328 25-640): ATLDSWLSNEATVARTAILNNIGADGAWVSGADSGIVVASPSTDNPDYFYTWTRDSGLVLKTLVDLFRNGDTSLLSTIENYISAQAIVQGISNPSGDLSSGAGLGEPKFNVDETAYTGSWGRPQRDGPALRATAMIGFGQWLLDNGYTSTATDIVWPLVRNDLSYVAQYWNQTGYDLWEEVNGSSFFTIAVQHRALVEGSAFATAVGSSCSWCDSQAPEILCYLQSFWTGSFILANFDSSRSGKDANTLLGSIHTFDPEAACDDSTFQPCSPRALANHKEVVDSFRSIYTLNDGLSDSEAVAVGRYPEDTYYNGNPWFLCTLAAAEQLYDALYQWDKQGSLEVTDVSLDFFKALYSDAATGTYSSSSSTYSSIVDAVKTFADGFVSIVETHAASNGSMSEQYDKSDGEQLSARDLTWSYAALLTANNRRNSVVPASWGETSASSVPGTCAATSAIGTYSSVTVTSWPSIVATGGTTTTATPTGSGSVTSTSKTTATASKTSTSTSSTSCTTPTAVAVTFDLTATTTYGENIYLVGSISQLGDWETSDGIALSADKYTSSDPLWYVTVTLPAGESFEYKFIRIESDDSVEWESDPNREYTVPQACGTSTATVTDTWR

Row | SMILES | order of enhancing effect [1] | reaching point of equilibrium (fructose to glucose vs glucose to fructose conversion) [2] | averages of fructose to glucose and glucose to fructose conversions [2] | conversion of glucose to fructose (activity+flow rate difference) [2] | order of enhancing effect [3] | order of enhancing effect [4] | solubility [5] | effectiveness in enhancing enzymatic activity [6] | inhibition of glucose isomerase / Sweetzyme T activity [3]
1 | [Ar] [argon] | Xe>Ar>Ne>Kr>He | reach equilibrium before nitrogen saturated columns | improvement | highest conversion | Ne>Ar>Kr>Xe>He | Xe>Ar>Ne>Kr>He | – | – | –
2 | [He] [helium] | Xe>Ar>Ne>Kr>He | – | – | – | Ne>Ar>Kr>Xe>He | Xe>Ar>Ne>Kr>He | low solubility | effective | –
3 | [Kr] [krypton] | Xe>Ar>Ne>Kr>He | – | – | – | Ne>Ar>Kr>Xe>He | Xe>Ar>Ne>Kr>He | – | – | –
4 | [Ne] [neon] | Xe>Ar>Ne>Kr>He | reach equilibrium before nitrogen saturated columns | improvement | significant but lesser enhancement over nitrogen | Ne>Ar>Kr>Xe>He | Xe>Ar>Ne>Kr>He | – | – | –
5 | O=O [oxygen] | – | – | – | – | – | – | – | – | greatly inhibited; also recorded: inhibitor
6 | [Xe] [xenon] | Xe>Ar>Ne>Kr>He | – | – | – | Ne>Ar>Kr>Xe>He | Xe>Ar>Ne>Kr>He | – | – | –

From patent publication US5512464A, “Method of producing high fructose corn syrup from glucose using noble gases” (American Air Liquide, priority 1994, dated 1996)
